These results are taken from US20170158807A1, “EPOXY RESIN COMPOSITION FOR ELECTRONIC MATERIAL, CURED PRODUCT THEREOF AND ELECTRONIC MEMBER” (DIC CORPORATION, priority 2014, published 2017).

A short description of series [1]: Viscosity of the liquid epoxy resin. In kind it is physicochemical. The settings on record: epoxy resin as obtained. As for the experimental part:
In a flask equipped with a thermometer, a dropping funnel, a condenser tube, and a stirrer, while being purged with nitrogen gas, 43 g of 2,4,4′-trihydroxybiphenyl, 295 g of epichlorohydrin, and 103 g of n-butanol were charged and dissolved. After the temperature was raised to 40° C., 53 g of a 48% by mass sodium hydroxide aqueous solution was added over 8 hours. The temperature was then further raised to 50° C., and the mixture was allowed to react for further 1 hour. After the completion of the reaction, 83 g of water was added, the mixture was allowed to stand, and then the lower layer was disposed. After that, unreacted epichlorohydrin was removed by distillation at 150° C. under reduced pressure. To the obtained crude epoxy resin, 118 g of methyl isobutyl ketone was added to dissolve the epoxy resin. To the solution, 67 g of a 10% by mass sodium hydroxide aqueous solution was further added, the mixture was allowed to react at 80° C. for 2 hours, and then washing with water was repeated three times until the pH of the washing liquid became neutral. Next, the system was dehydrated by azeotropic distillation, and subjected to microfiltration, followed by removing the solvent by distillation under reduced pressure, whereby 63 g of 2,4,4′-triglycidyloxybiphenyl (A-1) which was the target epoxy resin was obtained. […]

A short description of series [2]: Melt viscosity at 150° C. (ASTM D4287, ICI viscometer method). In kind it is physicochemical. Particulars: measurement temperature 150° C. Here is the method: 1) Melt viscosity at 150° C.: measured by the following apparatus according to ASTM D4287.
Apparatus name: MODEL CV-1S manufactured by Codex

Take `c1cc(-c2ccc(OCC3CO3)cc2OCC2CO2)ccc1OCC1CO1` (stereo not shown) [Example A-1, 2,4,4′-triglycidyloxybiphenyl]: in series [1], the “viscosity of liquid form” value is recorded as 943 Pa-s. The compound further registered a melt viscosity in series [2] of 0.14 dPa·s.
`c1cc(-c2cc(OCC3CO3)cc(OCC3CO3)c2)ccc1OCC1CO1` (stereo not shown) [Example A-2, 3,4′,5-triglycidyloxybiphenyl]: the melt viscosity in series [2] came to 0.27 dPa·s.
On the same count and under the same terms, in the case of `c1c(OCC2CO2)cc(-c2cc(OCC3CO3)cc(OCC3CO3)c2)cc1OCC1CO1` (stereo not shown) [Example A-3, 3,3′,5,5′-tetraglycidyloxybiphenyl] it was 0.57 dPa·s.
